Active and inactive are the calls of the source. The calls are words filed in the database; no cut-off is given here.
Experiments:
[1] = target: T1, DNA topoisomerase 1 (Homo sapiens) (UniProt P11387); assay: Inhibition of human DNA topoisomerase 1 assessed as intercalate into DNA at 312 uM
T1 sequence (whole entry): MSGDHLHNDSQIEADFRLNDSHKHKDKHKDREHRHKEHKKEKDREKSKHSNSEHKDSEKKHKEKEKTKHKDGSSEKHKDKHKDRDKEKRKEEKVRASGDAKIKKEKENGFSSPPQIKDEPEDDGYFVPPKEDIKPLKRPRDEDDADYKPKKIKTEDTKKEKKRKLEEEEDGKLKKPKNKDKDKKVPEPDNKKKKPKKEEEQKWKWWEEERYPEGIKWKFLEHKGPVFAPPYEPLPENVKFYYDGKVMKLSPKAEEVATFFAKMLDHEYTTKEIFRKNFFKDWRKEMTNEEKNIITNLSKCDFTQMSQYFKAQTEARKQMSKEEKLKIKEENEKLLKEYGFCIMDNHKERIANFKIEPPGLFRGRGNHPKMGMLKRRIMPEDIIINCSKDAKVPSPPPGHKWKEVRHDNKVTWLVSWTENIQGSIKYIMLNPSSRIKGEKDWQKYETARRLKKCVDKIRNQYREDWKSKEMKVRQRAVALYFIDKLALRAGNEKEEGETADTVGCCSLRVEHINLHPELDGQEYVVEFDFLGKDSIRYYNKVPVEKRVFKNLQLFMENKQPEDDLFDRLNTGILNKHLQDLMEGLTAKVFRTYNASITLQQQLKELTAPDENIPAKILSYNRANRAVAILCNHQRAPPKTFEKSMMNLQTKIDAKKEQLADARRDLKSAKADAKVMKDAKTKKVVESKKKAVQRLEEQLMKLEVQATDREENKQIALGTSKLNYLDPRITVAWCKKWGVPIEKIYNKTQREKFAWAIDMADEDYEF

[2] = test system: A549; assay: Cytotoxicity against human A549 cells after 48 hrs by WST8 assay; type: functional; settings: A549, 48 h
[3] = target: DNA topoisomerase 2-alpha (Homo sapiens, UniProt P11388); assay: Inhibition of human DNA topoisomerase 2-mediated relaxation of supercoiled DNA by gel electrophoresis
[4] = target: T1, DNA topoisomerase 1 (Homo sapiens); assay: Inhibition of human DNA topoisomerase 1-mediated relaxation of supercoiled DNA at 63 to 125 uM
[5] = target: T2, DNA topoisomerase 1 (Homo sapiens, UniProt P11387); assay: Inhibition of human DNA topoisomerase 1-mediated relaxation of supercoiled DNA by gel electrophoresis
T2 sequence (P11387 whole entry): T1 sequence (whole entry)

[6] = test system: PANC-1; assay: Cytotoxicity against human PANC1 cells after 48 hrs by WST8 assay; type: functional; settings: PANC-1, 48 h
[7] = Cytotoxicity against human MRC5 cells after 48 hrs by WST8 assay; type: cell-based
[8] = test system: PC-3; assay: Cytotoxicity against human PC3 cells after 48 hrs by WST8 assay; type: functional; settings: PC-3, 48 h
[9] = test system: HL-60; assay: Cytotoxicity against human HL60 cells after 48 hrs by WST8 assay; type: functional; settings: HL-60, 48 h
[10] = target: T2, DNA topoisomerase 1; assay: Inhibition of human DNA topoisomerase 1 at free enzyme state
[11] = target: T1, DNA topoisomerase 1 (Homo sapiens); assay: Inhibition of human DNA topoisomerase 1 assessed as prevention of DNA-enzyme complex formation
[12] = target: T1, DNA topoisomerase 1 (Homo sapiens); assay: Inhibition of human DNA topoisomerase 1 assessed as stabilize DNA-enzyme covalent complex
[13] = test system: PANC-1; assay: Cytotoxicity against human PANC1 cells at 25 uM after 48 hrs by WST8 assay; type: functional, cell-based
[14] = target: T1, DNA topoisomerase 1 (Homo sapiens); assay: Inhibition of human DNA topoisomerase 1-mediated relaxation of supercoiled DNA at 312 uM
[15] = test system: PC-3; assay: Cytotoxicity against human PC3 cells at 25 uM after 48 hrs by WST8 assay; type: functional, cell-based
[16] = test system: MRC5; assay: Cytotoxicity against human MRC5 cells at 25 uM after 48 hrs by WST8 assay; type: cell-based; settings: mrc5, 48 h
[17] = test system: HL-60; assay: Cytotoxicity against human HL60 cells at 25 uM after 48 hrs by WST8 assay; type: functional, cell-based
[18] = test system: A549; assay: Cytotoxicity against human A549 cells at 25 uM after 48 hrs by WST8 assay; type: functional, cell-based

Sequence of DNA topoisomerase 2-alpha (P11388 whole entry): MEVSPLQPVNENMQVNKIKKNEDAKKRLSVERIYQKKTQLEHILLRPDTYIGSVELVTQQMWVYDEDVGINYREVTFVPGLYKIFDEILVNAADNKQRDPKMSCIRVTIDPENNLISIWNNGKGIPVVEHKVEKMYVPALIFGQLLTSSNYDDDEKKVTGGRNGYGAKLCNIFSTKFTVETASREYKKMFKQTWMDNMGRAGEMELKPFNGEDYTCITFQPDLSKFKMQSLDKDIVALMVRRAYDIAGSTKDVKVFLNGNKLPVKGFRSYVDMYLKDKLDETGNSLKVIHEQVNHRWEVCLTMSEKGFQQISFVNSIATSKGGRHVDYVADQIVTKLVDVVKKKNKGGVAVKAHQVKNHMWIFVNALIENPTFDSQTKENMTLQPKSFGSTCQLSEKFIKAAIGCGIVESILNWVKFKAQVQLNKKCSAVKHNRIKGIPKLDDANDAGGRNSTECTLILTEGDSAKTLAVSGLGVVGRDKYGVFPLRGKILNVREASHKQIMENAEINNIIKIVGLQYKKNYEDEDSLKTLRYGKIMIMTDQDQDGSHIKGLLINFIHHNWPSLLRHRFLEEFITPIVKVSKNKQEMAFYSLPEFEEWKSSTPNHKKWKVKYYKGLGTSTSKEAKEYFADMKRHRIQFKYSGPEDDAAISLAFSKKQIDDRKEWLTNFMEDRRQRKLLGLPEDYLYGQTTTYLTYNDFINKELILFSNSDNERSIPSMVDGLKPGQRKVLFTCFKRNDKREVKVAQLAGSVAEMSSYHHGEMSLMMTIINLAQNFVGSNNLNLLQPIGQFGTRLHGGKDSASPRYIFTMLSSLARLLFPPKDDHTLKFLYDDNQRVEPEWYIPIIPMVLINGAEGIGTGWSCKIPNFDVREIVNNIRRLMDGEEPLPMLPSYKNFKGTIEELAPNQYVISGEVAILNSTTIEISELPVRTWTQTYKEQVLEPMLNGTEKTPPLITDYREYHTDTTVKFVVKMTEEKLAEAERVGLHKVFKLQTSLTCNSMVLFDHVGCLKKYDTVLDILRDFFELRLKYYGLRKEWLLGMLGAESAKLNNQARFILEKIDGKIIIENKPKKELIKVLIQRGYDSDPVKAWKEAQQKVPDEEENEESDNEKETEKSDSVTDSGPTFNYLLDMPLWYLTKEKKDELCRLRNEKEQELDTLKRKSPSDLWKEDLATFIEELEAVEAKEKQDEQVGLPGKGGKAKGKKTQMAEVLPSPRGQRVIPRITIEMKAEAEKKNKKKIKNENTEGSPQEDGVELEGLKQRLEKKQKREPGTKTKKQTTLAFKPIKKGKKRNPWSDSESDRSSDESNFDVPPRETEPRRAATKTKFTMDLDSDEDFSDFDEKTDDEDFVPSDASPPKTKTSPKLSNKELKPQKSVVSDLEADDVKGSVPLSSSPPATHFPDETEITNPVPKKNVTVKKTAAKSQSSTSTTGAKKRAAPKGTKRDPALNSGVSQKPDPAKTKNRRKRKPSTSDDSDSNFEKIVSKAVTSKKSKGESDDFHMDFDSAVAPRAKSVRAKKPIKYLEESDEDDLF

Compound	Activity [1]	IC50 [3] [µM]	inhibition [4]	IC50 [5] [µM]	IC50 [10] [µM]	inhibition [11]	inhibition [12]	inhibition [14]	GI50 [2] [µM]	GI50 [6] [µM]	GI50 at 48 h [7] [µM]	GI50 [8] [µM]	GI50 [9] [µM]	growth inhibition (GI) [13]	growth inhibition (GI) [15]	growth inhibition (GI) [16]	growth inhibition (GI) [17]	growth inhibition (GI) [18]
C/C=C(/C)C(=O)O[C@H]1[C@H](OC(=O)C(C)CC)[C@]2(CO)[C@H](O)C[C@]3(C)C(=CC[C@@H]4[C@@]5(C)CC[C@H](O[C@@H]6O[C@H](C(=O)O)[C@@H](O)[C@H](O[C@@H]7O[C@@H](CO)[C@H](O)[C@H]7O)[C@H]6O[C@@H]6O[C@H](CO)[C@H](O)[C@H](O)[C@H]6O)C(C)(C)[C@@H]5CC[C@]43C)[C@@H]2CC1(C)C (stereo partly specified) [AESCULIOSIDE IVC]	–	> 250	Active	49.7	23.8	Active	inactive	–	10.2	15.6	4.34	7.7	8.02	–	–	–	–	–
CC1(C)C=C2[C@H]3CC[C@@H]4[C@@]5(C)CC[C@H](O)C(C)(C)[C@@H]5CC[C@@]4(C)[C@]3(C)CC[C@@]2(C)CC1 [GERMANICOL]	–	–	–	–	–	–	–	inactive	–	–	–	–	–	inactive	inactive	Not Active	inactive	inactive
CC(=O)O[C@H]1CC[C@]2(C)[C@H]3CC=C4[C@@H]5CC(C)(C)CC[C@]5(C)CC[C@@]4(C)[C@]3(C)CC[C@H]2C1(C)C [beta-AMYRIN ACETATE]	–	–	–	–	–	–	–	inactive	–	–	–	–	–	inactive	inactive	Not Active	inactive	inactive

Further lines, with some results ahead:

Activity [1]	IC50 [3] [µM]	inhibition [4]	IC50 [5] [µM]	IC50 [10] [µM]	inhibition [11]	inhibition [12]	inhibition [14]	Compound	GI50 [2] [µM]	GI50 [6] [µM]	GI50 at 48 h [7] [µM]	GI50 [8] [µM]	GI50 [9] [µM]	growth inhibition (GI) [13]	growth inhibition (GI) [15]	growth inhibition (GI) [16]	growth inhibition (GI) [17]	growth inhibition (GI) [18]
Active	> 250	Active	45.1	–	–	–	–	C/C=C(/C)C(=O)O[C@H]1[C@H](OC(=O)/C(C)=C/C)C(C)(C)C[C@H]2C3=CC[C@@H]4[C@@]5(C)CC[C@H](O[C@@H]6O[C@H](C(=O)O)[C@@H](O)[C@H](O[C@@H]7O[C@@H](CO)[C@H](O)[C@H]7O)[C@H]6O[C@@H]6O[C@H](CO)[C@@H](O)[C@H](O)[C@H]6O)[C@](C)(CO)[C@@H]5CC[C@@]4(C)[C@]3(C)[C@@H](O)[C@@H](O)[C@]21CO [AESCULIOSIDE IIIE]	21.3	21.4	21.5	12.8	14	–	–	–	–	–
–	> 250	Active	51.8	23.8	Active	inactive	–	C/C=C(/C)C(=O)O[C@H]1[C@H](OC(=O)C(C)CC)[C@]2(CO)[C@H](O)[C@H](O)[C@]3(C)C(=CC[C@@H]4[C@@]5(C)CC[C@H](O[C@@H]6O[C@H](C(=O)O)[C@@H](O)[C@H](O[C@@H]7O[C@@H](CO)[C@H](O)[C@H]7O)[C@H]6O[C@@H]6O[C@H](CO)[C@H](O)[C@H](O)[C@H]6O)C(C)(C)[C@@H]5CC[C@]43C)[C@@H]2CC1(C)C (stereo partly specified) [AESCULIOSIDE IVA]	9.91	17.6	4.78	9.22	7.26	–	–	–	–	–
–	> 250	–	> 250	–	–	–	inactive	C/C=C(/C)C(=O)O[C@H]1[C@H](O)[C@]2(CO)[C@H](O)[C@H](O)[C@]3(C)C(=CC[C@@H]4[C@@]5(C)CC[C@H](O[C@@H]6O[C@H](C(=O)O)[C@@H](O)[C@H](O[C@@H]7OC[C@@H](O)[C@H](O)[C@H]7O)[C@H]6O[C@@H]6O[C@H](CO)[C@@H](O)[C@H](O)[C@H]6O)C(C)(C)[C@@H]5CC[C@]43C)[C@@H]2CC1(C)C [ERYNGIOSIDE 94A]	7.34	–	8.51	7.99	9.38	inactive	–	–	–	–

Source: ChEMBL document CHEMBL1157938, “Cytotoxicity and inhibition of DNA topoisomerase I of polyhydroxylated triterpenoids and triterpenoid glycosides” (Bioorg Med Chem Lett, 2010)
